Values of other authors as cited in US20070173464A1, “Oral ribavirin pharmaceutical compositions” (Flamel Technologies, priority 2005, published 2007).
Values after ≈ are worked out from the molar mass of the structure shown.

Columns and labels:
[1] = test system: Hepatitis C Virus (HC); conditions: up to 1200 mg per day, typically 48 weeks, in conjunction with interferon or long acting pegylated interferon; genotype I patients

In the case of NC(=O)c1ncn([C@@H]2O[C@H](CO)[C@@H](O)[C@H]2O)n1 [Ribavirin, 1-beta-D-ribofuranosyl-1,2,4-thiazole-3-carboxamide], the sustained virologic response [1] is given as 30 to 55 % of genotype I patients and the water solubility is given as 140 mg/mL (≈ 573 mM).
